{"source": "patent US7595395B2", "about": "“Gabaergic agents to treat memory deficits” (priority 2005, dated 2009)", "key": {"[1]": {"biological_target": "T1, α1β3γ2 benzodiazepine receptor GABA(A) isoform (UniProt P14867+P18507)", "T1 sequence (P14867 1-456)": "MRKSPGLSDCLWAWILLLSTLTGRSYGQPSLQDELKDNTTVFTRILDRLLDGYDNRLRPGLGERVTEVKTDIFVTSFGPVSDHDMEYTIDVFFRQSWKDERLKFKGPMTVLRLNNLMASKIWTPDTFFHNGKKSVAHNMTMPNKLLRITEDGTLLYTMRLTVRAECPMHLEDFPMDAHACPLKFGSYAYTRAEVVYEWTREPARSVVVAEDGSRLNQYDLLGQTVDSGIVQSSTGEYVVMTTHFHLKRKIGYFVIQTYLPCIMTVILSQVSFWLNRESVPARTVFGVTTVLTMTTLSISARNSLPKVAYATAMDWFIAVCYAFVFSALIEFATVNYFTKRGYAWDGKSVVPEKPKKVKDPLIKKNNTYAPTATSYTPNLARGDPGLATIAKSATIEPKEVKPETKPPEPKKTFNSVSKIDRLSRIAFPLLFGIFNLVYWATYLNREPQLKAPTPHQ", "T1 sequence (P18507 1-475)": "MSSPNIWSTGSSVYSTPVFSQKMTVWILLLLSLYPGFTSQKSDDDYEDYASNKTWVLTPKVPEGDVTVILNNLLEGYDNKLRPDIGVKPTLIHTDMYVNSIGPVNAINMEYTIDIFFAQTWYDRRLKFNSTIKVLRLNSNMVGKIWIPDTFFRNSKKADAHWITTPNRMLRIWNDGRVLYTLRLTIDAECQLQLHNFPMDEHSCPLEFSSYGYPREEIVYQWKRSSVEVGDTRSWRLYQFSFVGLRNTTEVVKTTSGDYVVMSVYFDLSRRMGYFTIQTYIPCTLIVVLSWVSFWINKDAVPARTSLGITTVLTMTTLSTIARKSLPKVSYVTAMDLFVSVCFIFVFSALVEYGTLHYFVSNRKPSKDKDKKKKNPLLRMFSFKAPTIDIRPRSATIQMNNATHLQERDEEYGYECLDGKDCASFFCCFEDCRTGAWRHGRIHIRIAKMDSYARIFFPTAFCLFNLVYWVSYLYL", "experiment": "Radioligand competition binding, α1β3γ2 BzR/GABA(A) isoform", "design": "rows headed: Ki α1 (in words); other: text; HEK-T cells (Roth et al.); species or system human and rat", "conditions": "HEK-T cells (Roth et al.)", "method": "The affinity of all ligands at the 6 major recombinant GABAA/BzR subtypes was measured by competition for [^3H]Ro15-1788 binding to HEK-T cells expressing both human and rat GABAA/Bz receptors of composition α1β2γ2 (α1), α2β2γ2 (α2), α3β2γ2 (α3), α4β2γ2 (α4), α5β2γ2 (α5) and α6β2γ2 (α6). It is well known that the β2 and β3 subunits can be interchanged with no effect on Bz ligand affinity or efficacy. […] These studies are similar to those performed in the laboratory of Bryan Roth who has already expressed the receptors employing the work of Kucken et. al. and Gray et. al.\nIn brief, for membrane preparations, the cells were scraped on to the ice and diluted into 5 mL of phosphate buffered saline (pH=7.40) and cells pelleted by centrifugation for 5 min. at 4° C. The pellet was resuspended in 1 mL of 50 mM Tris-acetate buffer (pH 7.4) and centrifuged at 18,000 g for 20 min. […] Each pellet were diluted to 6 mL and then 100 μL of membranes were incubated with approximately 1 nM final concentration of [^3H]Ro 15-1788 in a total volume of 250 μL together with serial dilutions of test compound for 90 min. on ice. The membranes were harvested in polyethyleneimine-pretreated Whatman GF/C filters and after drying and addition of scintillation cocktail, counted in a scintillation counter. […]"}, "[2]": {"system": "full panel of receptors (5ht1a ... σ1, σ2)", "experiment": "Full panel receptor binding (secondary binding)", "from_the_text": "FIGS. 28 A and B provide a full panel Receptor data for certain compounds of the invention. Data on the full panel (secondary binding) are Ki values. The Ki values are reported in nanomolar concentrations, In the Full panel data various receptors were used, including 5ht1a, 5ht1b, 5ht1d, 5ht1e, 5ht2a, 5ht2b, 5ht2c, 5ht3, 5ht5a, 5ht6, 5ht7, α1A, α1B, α2A, α2B, α2C, β1, β2, CB1, CB2, D1, D2, D3, D4, D5, DAT, DOR, H1, H2, H3, H4, imidazoline 1, KOR, M1, M2, M3, M4, M5, MDR1, MOR, NET, NMDA, SERT, σ1, and σ2. 5-HT receptors, 5ht1a, 5ht1b, 5ht1d, 5ht1e, 5ht2a, 5ht2b, 5ht2c, 5ht3, 5ht5a, 5ht6, 5ht7, are receptors for the neurotransmitter and peripheral signal mediator serotonin, also known as 5-hydroxytryptamine or 5-HT. α1A, α1B, α2A, α2B, α2C, β1, β2; CB1, CB2 are adrenoceptors; cannabinoid receptors, D1, D2, D3, D4, D5 are dopamine receptors; DAT is dopamine transporter receptor; DOR is δ-Opioid receptor; H1, H2, H3, H4 are histamine receptors; KOR is κ-Opioid receptor; M1, M2, M3, M4, M5 are muscarinic acetylcholine receptors; MDR represents multidrug resistance in the course of exposure to various compounds that are used in modern anticancer therapy, including cytotoxic drugs and differentiating agents. […]"}, "Tail flick assay": {"experiment": "Tail flick assay", "conditions": "in vivo"}}}
{"compound": "CCc1ccc2c(c1)C(=O)N(C)Cc1c(C(=O)OCCCOC(=O)c3ncn4c3CN(C)C(=O)c3cc(CC)ccc3-4)ncn1-2", "note": "[XLi356, 1,3-Bis(8-ethyl-5,6-dihydro-5-methyl-6-oxo-4H-imidazo[1,5a][1,4]benzodiazepine-3-carboxy)propyl diester]", "values": [{"measurement": "Ki α1 (in words)", "setting": "[1]", "result": "no affinity"}, {"measurement": "binding to other receptors in full panel (in words)", "setting": "[2]", "result": "do not bind to other receptors at levels of concern"}, {"measurement": "analgesic effect in tail flick assay (in words)", "setting": "Tail flick assay", "result": "No analgesic effect"}]}
